Reference: PMC9167697 (Clinical cancer research : an official journal of the …, 2022)

Columns and labels:
[1] = Plasma pharmacokinetics of taminadenant in the phase I/Ib study; assay type: in vivo, human
mouse xenograft models = details: cited from earlier work
A2AR = details: cells transfected with A2AR; cited from earlier work
[2] = tested on: advanced/metastatic NSCLC; experiment: Tumor response; assay type: in vivo, human
[3] = tested on: patients with advanced NSCLC; experiment: Safety, tolerability, DLT and MTD in the phase I/Ib dose-escalation study; assay type: in vivo
human A2AR = details: cited from earlier work
[4] = investigator-assessed, RECIST v1.1, n=25

Structure (SMILES): Nc1nc(-n2cccn2)nc(-n2cccn2)c1Br [Taminadenant]
- Vd/F ([1]; human, in vivo): 114 to 1520 L
- apparent clearance (CL/F) upon repeated daily dosing compared with a single dose ([1]; human, in vivo): notably decreased
- time to maximum plasma drug concentration (Cmax) ([1]; human, in vivo, po): 0.5 to 3 h
- differences in taminadenant PK between the single-agent and combination group ([1]; large inter-individual variability in Cmax and AUC): no notable differences
- accumulation relative to a single dose ([1]; repeated daily doses, after 1 week): approximately 3 fold
- increase of systemic exposure (Cmax, AUC) with escalating doses ([1]; single and multiple doses from 80 mg to 640 mg): more-than-proportional
- effect on tumor growth (mouse xenograft models): significantly reduced tumor growth
- effect on cyclic adenosine monophosphate accumulation (A2AR): inhibition of cyclic adenosine monophosphate accumulation
- Disease control rate ([2]; CR + PR + SD, based on the number of evaluable patients): 42.9 (21.8–66.0) % (95% CI)
- Overall response rate ([2]; CR + PR, based on the number of evaluable patients): 9.5 (1.2–30.4) % (95% CI)
- median estimate of OS ([2]; Kaplan-Meier): 9.7 months
- median estimate of PFS ([2]; Kaplan-Meier, RECIST v1.1): 3.9 months
- Best overall response: Complete response [2, 4]: 1 (4.0) n (%)
- Best overall response: Non-evaluable [2, 4]: 4 (16.0) n (%)
- Best overall response: Partial response [2, 4]: 1 (4.0) n (%)
- Best overall response: Progressive disease [2, 4]: 12 (48.0) n (%)
- Best overall response: Stable disease [2, 4]: 7 (28.0) n (%)
- patients who achieved disease control ([2]; of all 25 patients per group): 36.0%
- duration of complete response ([2]; one patient each, single agent 480 mg, combination 160 mg taminadenant): 1.1 months
- duration of disease control in a patient with stable disease ([2]; one patient, 160 mg, on treatment at data cut-off): 36.7 months
- dose delays or interruptions ([3]; human, in vivo): 13 patients
- patients who discontinued due to adverse events ([3]; human, in vivo): 12.0%
- patients with Grade 3/4 TRAEs ([3]; human, in vivo): 16.0%
- patients with treatment-related adverse events (TRAEs) of any grade ([3]; human, in vivo): 84.0%
- patients with treatment-related fatigue ([3]; human, in vivo): 20.0%
- patients with treatment-related gastroesophageal reflux disease ([3]; human, in vivo): 24.0%
- patients with treatment-related nausea ([3]; human, in vivo): 44.0%
- patients with treatment-related vomiting ([3]; human, in vivo): 20.0%
- dose delays due to TRAEs ([3]; in vivo): five
- patients reporting at least one adverse event, regardless of causality ([3]; in vivo): All patients
- tolerability ([3]; in vivo): well tolerated
- on-study deaths ([3]; n=25 per group, none related to study treatment): 8.0%
- maximum tolerated dose (MTD) of taminadenant ([3]; oral, combination with 400 mg spartalizumab Q4W): 480 mg BID
- in vitro binding affinity to human A2AR, as concentration (human A2AR): 3.67 ng/mL
- Ki (human A2AR; read-out: in vitro binding affinity to human A2AR): 12 nM
